Experimental data taken from patent publication US20250114313A1, “OLIGO-BENZAMIDE ANALOGS AND THEIR USE IN CANCER TREATMENT” (BOARD OF REGENTS, THE UNIVERSITY OF TEXAS SYSTEM, priority 2022, published 2025).
pIC50: −log10 of the molar value.

How the values were obtained:
LIPA KO SUM-159 cells = test: Live cell confocal imaging of ER tubule width, SUM-159 LIPA KO; format: cell-based, Human; settings: 1 μM
Procedure: Live cell confocal and Airyscan imaging: To visualize ER structure, stable SUM-159 cell lines expressing mCherry-RAMP4 were established. pLenti-X1-hygro-mCherry-RAMP4 was purchased from Addgene (Addgene #118391; //n2t.net/addgene:118391; RRID:Addgene_118391) (via Jacob Corn).^35 The live cell images were acquired by Confocal Zeiss LSM880 Airyscan. ER tubule width was calculated by drawing 1px-wide line scans perpendicular to the long axis of individual ER tubules. In MATLAB, the peak intensity along each line scan was determined and the distance between the half maximum intensity on either side of the peak was measured. The code for this analysis is available at: //github.com/andmoo91/HalfMaxScript.

Sum159 cells = test: DIA-MS of whole cell lysates; format: cell-based, Human; settings: 500 nM, 6 h
Procedure: Mass spectrometry based DIA analyses of whole cell lysates: Sum159 cells were treated with vehicle or ERX-41 (500 nM). After 6 h of treatment, cells were pelleted and snap-frozen and then lysed in buffer containing 5% SDS/50 mM triethylammonium bicarbonate (TEAB) in the presence of protease and phosphatase inhibitors (Halt; Thermo Scientific) and nuclease (Pierce™ Universal Nuclease for Cell Lysis; Thermo Scientific). Aliquots corresponding to 100 μg protein (EZQ™ Protein Quantitation Kit; Thermo Scientific) were reduced with tris (2-carboxyethyl)phosphine hydrochloride (TCEP), alkylated in the dark with iodoacetamide and applied to S-Traps (mini; Protifi) for tryptic digestion (sequencing grade; Promega) in 50 mM triethylammonium bicarbonate (TEAB). Peptides were eluted from the S-Traps with 0.2% formic acid in 50% aqueous acetonitrile and quantified using Pierce™ Quantitative Fluorometric Peptide Assay (Thermo Scientific). Data-independent acquisition mass spectrometry (DIA-MS) was conducted on an Orbitrap Fusion Lumos mass spectrometer (Thermo Scientific). On-line HPLC separation was accomplished with an RSLC NANO HPLC system (Thermo Scientific/Dionex: column, PicoFrit™ (New Objective; 75 μm i.d.) packed to 15 cm with C18 adsorbent (Vydac; 218MS 5 μm, 300 Å); mobile phase A, 0.5% acetic acid (HAc)/0.005% trifluoroacetic acid (TFA) in water, mobile phase B, 90% acetonitrile/0.5% HAc/0.005% TFA/9.5% water; gradient 3 to 42% B in 120 min; flow rate, 0.4 μl/min. A pool was made of the 6 samples (three replicates from each group), and 2-μg peptide aliquots were analyzed using gas-phase fractionation and 4-m/z windows (30k resolution for precursor and product ion scans, all in the orbitrap) to create a DIA chromatogram library^40 by searching against a Prosit-generated predicted spectral library^41 based on the UniProt_human_20191022 protein sequence database. Experimental samples were blocked by replicate and randomized within each replicate for sample preparation and analysis; injections of 2 μg of peptides and a 2-h HPLC gradient were employed. […]

TNBC cells (MDA-MB-231) = test: Live cell imaging with SYTOX Green, cell death in TNBC cells; format: cell-based, Human; settings: within 30 hours of treatment; control <1%
Procedure: Live cell imaging: Live cell images were acquired by Lionheart FX automated microscope (BioTek). Cells were plated one day before the experiment. For cell death assay, 0.2 μM SYTOX Green was added into the plate 15 min before the experiment.

[1] = system: SUM-159 cells with LIPA KO; test: CellTiter-Glo, SUM-159 LIPA KO cells; format: cell-based; settings: Homo sapiens, SUM159; SUM-159 stably transfected mCherry-RAMP4, CellTiter-Glo
Procedure: (§1) Cell viability assays: Cells were seeded in 96-well plates (2×10^3 cells/well) one day before the treatment. Cells were treated with varying concentrations of ERX-41 or ERX-11 analogs for 3-6 days. Then effects of ERX-41 or ERX-11 analogs on cell viability were measured in triplicate or sextuplicate with multiple biological replicates using the WST-1 (Promega), MTT as previously described^33 or CellTiter-Glo 2.0 (Promega) assays.
Lentiviral constructs cloning: LentiCRISPRv2 vector was used for CRSPR KO experiments. sgRNAs, which were chosen from human CRISPR knockout pooled library, were cloned into lentiCRISPRv2 vector^34. Human LIPA cDNA (GenBank: BC012287) or mouse LIPA cDNA (NM_021460) were clone into pWPI for over expression experiments. For TurboID experiment, the LIPA-TurboID sequence was cloned into pCW57-MCS1-2A-MCS2 vector. LentiCRISPR v2 was purchased from Addgene (Addgene #52961; //n2t.net/addgene:52961; RRID:Addgene_52961) (via Feng Zhang). pWPI was purchased from Addgene (Addgene #12254; //n2t.net/addgene:12254; RRID:Addgene_12254) (via Didier Trono). pCW57-MCS1-2A-MCS2 was purchased from Addgene (#71782) (via Adam Karpf). Human LIPA gene is referred as LIPA, while mouse LIPA gene is referred as mLIPA in this disclosure. […]

[2] = system: 21 human preclinical TNBC cell line models; test: WST-1 assay, TNBC cell lines; format: cell-based; settings: 21 TNBC cell lines, all six molecular subtypes, read-out: anti-proliferative IC50, WST-1
Procedure: as §1

[3] = system: MDA-MB-231 cells with LIPA KO; test: CellTiter-Glo response of MDA-MB-231 knockout clones; format: cell-based, Human
Procedure: as §1
CRISPR Screen: Human Brunello CRISPR knockout pooled library was purchased from Addgene (Addgene #73178) (via David Root and John Doench). The library containing lentivirus was transduced into cells in biological replicates or triplicates at a multiplicity of infection (MOI) of ˜0.5 and a minimum of 500× coverage. Two days later after transduction, uninfected cells were removed with puromycin selection. The library containing cells was treated with vehicle or ERX-41 for 2 weeks. Genomic DNA was extracted from same number of cells. The sgRNA cassette retrieved by PCR, followed by Next Generation Sequencing (NGS). NGS data was analyzed by MAGeCK (Li et al., Genome Biology, 2014 PMID: 25476604).
Lentiviral constructs cloning: LentiCRISPRv2 vector was used for CRSPR KO experiments. sgRNAs, which were chosen from human CRISPR knockout pooled library, were cloned into lentiCRISPRv2 vector^34. […]

## CC(C)COc1cc(C(=O)Nc2ccc(C(=O)N[C@H]3CC[C@H](C)CC3)cc2OCC(C)C)ccc1NC(=O)c1ccc([N+](=O)[O-])c(OCCO)c1 [ERX-41]
LIPA KO SUM-159 cells
  ER tubule diameter in LIPA KO cells: no significant changes in ER tubule diameter
Sum159 cells
  number of cellular proteins with significantly affected expression: 189
  number of down-regulated proteins: 153
  number of up-regulated proteins: 36
TNBC cells (MDA-MB-231)
  cells dead: > 90%
[1]
  pIC50: ~5.40
[2]
  pIC50: > 6.30
[3]
  effect of LIPA knockout on cytotoxic response: abrogate the cytotoxic response to ERX-41
